Data reported in patent US20040171688A1, “Carboxylic acids and derivatives thereof and pharmaceutical compositions containing them” (priority 1997, published 2004).
Entries after “also recorded” stand apart in the source; their conditions may differ.

How the values were obtained:
HNF-4α [1] = molecular target: T1, HNF-4α (Rattus norvegicus, UniProt P22449); test: Ligand binding assay with [3H]palmitoyl(16:0)-CoA on recombinant GST-HNF-4α(LBD) or His-HNF-4α; settings: competition with 8 nM [3H]palmitoyl(16:0)-CoA; GST-HNF-4α(LBD) or His-HNF-4α; read-out: EC50 (50% specific competition)
T1 construct: GST-HNF-4α(LBD) fusion protein consisting of amino acids 96-455 of wild type HNF-4α fused to GST; fused on or other part: Glutathione-S-transferase (GST) at the N-terminus of the LBD construct; 6-histidine tag on the full-length construct
T1 sequence (P22449 105-464 isoform P22449-2 limits assumed): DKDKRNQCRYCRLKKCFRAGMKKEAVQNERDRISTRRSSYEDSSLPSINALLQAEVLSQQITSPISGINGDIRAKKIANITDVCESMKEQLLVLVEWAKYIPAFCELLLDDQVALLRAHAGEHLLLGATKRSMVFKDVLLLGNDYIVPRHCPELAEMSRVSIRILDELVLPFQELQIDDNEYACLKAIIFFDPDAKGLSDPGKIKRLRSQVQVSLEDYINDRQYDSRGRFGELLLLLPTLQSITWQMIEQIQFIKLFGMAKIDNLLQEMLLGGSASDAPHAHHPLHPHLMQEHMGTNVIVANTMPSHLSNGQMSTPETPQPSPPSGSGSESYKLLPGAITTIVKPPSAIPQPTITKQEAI
Protocol: a. […] The respective recombinant proteins are incubated to equilibrium with [^3H]palmitoyl(16:0)-CoA (0.05 μCi) and with increasing nonlabeled palmitoyl(16:0)-CoA as indicated.
b. […] The respective recombinant proteins are incubated with 8 nM of [^3H]palmitoyl(16:0)-CoA (60 Ci/mmol) and with increasing nonlabeled myristoyl(14:0)-CoA as indicated. Percent bound refers to radiolabeled [^3H]palmitoyl(16:0)-CoA in the bound fraction. […] Percent bound refers to radiolabeled [^3H]palmitoyl(16:0)-CoA in the bound fraction.
Rat HNF-4α1 cDNA(pLEN4S)^1 was subcloned into the glutathione-S-transferase (GST) encoding pGEX-2T plasmid (Pharmacia) and the resultant plasmid was cleaved with smaI and AccI and religated to yield the GST-HNF-4α(LBD) fusion plasmid. […] The full length HNF-4α1 cDNA cloned into 6His-pET11d vector was expressed in E.coli BL21 (DE3)plysS.
Recombinant GST-HNF-4α(LBD) (100 pmol) or His-HNF-4α (100 pmol) were incubated for 60 min at 22° C. with [^3H]palmitoyl(16:0)-CoA (American RadiolabeledChemicals) in 100 μl of 10 mM phosphate buffer (pH 7.4). Competitor ligands or solvent carrier were added as indicated. Free and HNF-4α bound ^3[H]palmitoyl(16:0)-CoA were separated by […] and bound ligand was quantified by liquid scintillation counting. Nonspecific binding of [^3H]palmitoyl(16:0)-CoA was determined by its binding to the GST moiety or to carbonic anhydrase as nonrelevant protein.
Binding was exemplified with either the ligand binding domain of HNF-4α fused to glutathione-s-transferase (GST-HNF-4α(LBD)) or the full length HNF-4α protein tagged by 6 histidines (His-HNF-4α).

HNF-4α [2] = molecular target: T2, HNF-4α (Rattus norvegicus, UniProt P22449); test: Gel mobility shift assay: His-HNF-4α binding to C3P apo CIII promoter oligonucleotide; assay type: biochemical; parameters: The full length HNF-4α1 cDNA cloned into 6His-pET11d vector was expressed in E.coli BL21 (DE3)plysS; 6His; made in house; host or cells: E. coli BL21 (DE3)plysS; settings: for effect on His-HNF-4α binding to C3P oligonucleotide: gel mobility shift, 10 μM acyl-CoA (FIG. 2)
T2 sequence (P22449 1-464 isoform P22449-2): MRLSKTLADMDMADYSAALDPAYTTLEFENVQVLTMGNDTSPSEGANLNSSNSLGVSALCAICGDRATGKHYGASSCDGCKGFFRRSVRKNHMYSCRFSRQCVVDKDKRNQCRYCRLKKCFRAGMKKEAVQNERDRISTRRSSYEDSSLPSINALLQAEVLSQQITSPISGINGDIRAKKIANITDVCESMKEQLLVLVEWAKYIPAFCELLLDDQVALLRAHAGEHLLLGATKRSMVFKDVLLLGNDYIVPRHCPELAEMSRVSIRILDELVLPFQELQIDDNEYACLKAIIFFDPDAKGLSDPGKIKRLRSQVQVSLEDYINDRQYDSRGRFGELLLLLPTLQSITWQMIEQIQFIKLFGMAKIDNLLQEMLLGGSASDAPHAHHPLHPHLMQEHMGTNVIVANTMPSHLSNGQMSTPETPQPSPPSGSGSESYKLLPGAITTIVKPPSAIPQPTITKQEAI
Protocol: a. His-HNF-4I (14 ng) binding to C3P in the absence (lane 1) or presence of 10 μM each of myristoyl(14:0)-CoA (lane 2) or palmitoyl(16:0)-CoA (lane 3).
b. His-HNF-4I (20 ng) binding to C3P in the absence (lane 1) or presence of 10 μM each of stearoyl(18:0)-CoA (lane 2) or linolenoyl(18:3, w-3)-CoA (lane 3).
c. Activation of His-HNF-4I (14 ng) binding to C3P by increasing concentrations of myristoyl(14:0)-CoA. The gel section containing radiolabeled C3P bound to His-HNF-4I dimer is shown.
His-HNF-4α and acyl-CoA (as indicated) were preincubated for 30 min at 22° C. in 11 mM Hepes (pH 7.9) containing 50 mM KCl, 1 mM dithiothreitol. 2.5 mM MgCl2, 10% glycerol, 1 μg of poly(dI-dC) in a final volume of 20 μl. ^32P-labeled oligonucleotide (0.1 ng) consisting of the human C3P apo CIII promoter sequence,(−87/−66)^6 was then added, and incubation was continued for an additional 15 min. Protein-DNA complexes were resolved by 5% nondenaturing polyacrylamide gel in 0.6×TBE and quantitated by PhosphorImager analysis.
HNF-4α activity as a function of binding of long chain acyl-CoAs was evaluated by studying the binding of HNF-4α to its cognate C3P element of the apo CIII promoter sequence (−87/−66)^6 in the presence or absence of added acyl-CoAs of variable chain length, degree of saturation, and degree of substitution. Binding was verified by using a gel mobility shift assay. […] Activation was concentration dependent and maximal in the presence of myristoyl(14:0)-CoA added within a concentration range required for its binding to HNF-4α.

SMILES | EC50 (HNF-4α [1]) [nM] | effect on His-HNF-4α binding to C3P oligonucleotide (HNF-4α [2]) | direct effect on HNF-4α (summary) (HNF-4α [2]; summary statement of Example 4)
CCCCCCCCCCCCCC(=O)SCCNC(=O)CCNC(=O)[C@H](O)C(C)(C)COP(=O)(O)OP(=O)(O)OC[C@H]1O[C@@H](n2cnc3c(N)ncnc32)[C@H](O)[C@@H]1OP(=O)(O)O [myristoyl(14:0)-CoA, reference compound] | 1400 | Activation; also recorded: maximal | 
CCCCCCCCCCCCCCCCCC(=O)SCCNC(=O)CCNC(=O)[C@H](O)C(C)(C)COP(=O)(O)OP(=O)(O)OC[C@H]1O[C@@H](n2cnc3c(N)ncnc32)[C@H](O)[C@@H]1OP(=O)(O)O [Stearoyl(18:0)-CoA] | 2700 | potent inhibition | antagonistic effect
